Measured values: ChEMBL document CHEMBL5550138, “Histidine-Covalent Stapled Alpha-Helical Peptides Targeting hMcl-1” (J Med Chem, 2024)
Active and inactive are the calls of the source. The rule behind the calls is not given here. Positions of bridges follow the written chain, without caps; N, C: chain ends. Non-standard residues stand in square brackets, D forms with d. Residues, ends and D or L forms follow the SMILES beside them. *: point of attachment. Benzoyl(2-OMe,5-SO2F) = COc1ccc(S(=O)(=O)F)cc1C(=O)*; S5 = C=CCCC[C@](C)(N)C(=O)O; Dap = NC[C@H](N)C(=O)O

What was measured:
[1] = system: A549; assay: Potentiation of etoposide-induced apoptosis in NucLight Red-labeled human A549 cells assessed as decrease in cell viability at 10 uM measured for 24 to 72 hrs in presence of etoposide by IncuCyte S3 live cell analysis; type: functional, cell-based; conditions: time 24-72 hrs
[2] = system: A549; assay: Induction of apoptosis in NucLight Red-labeled human A549 cells assessed as decrease in cell viability at 10 uM measured for 24 to 72 hrs by IncuCyte S3 live cell analysis; type: functional, cell-based; conditions: time 24-72 hrs
[3] = molecular target: T1, Induced myeloid leukemia cell differentiation protein Mcl-1 (Homo sapiens, UniProt Q07820); assay: (§1) Covalent binding affinity to N-terminal His6-tagged human Mcl-1 ligand binding domain (172 to 323 residues) expressed in Escherichia coli BL21(DE3) gold pLysS cells assessed as stable covalent adduct formation by measuring reaction half life at 100 uM incubated for 16 hrs by SDS PAGE analysis
[4] = organism: Homo sapiens; assay: Covalent binding affinity to N-terminal His6-tagged human Mcl-1 ligand binding domain (172 to 323 residues) Lys234Ala mutant expressed in Escherichia coli BL21(DE3) gold pLysS cells assessed as increase in mass of protein at 100 uM incubated for 16 hrs by LC-MS analysis
[5] = molecular target: T1, Induced myeloid leukemia cell differentiation protein Mcl-1; assay: Displacement of biotinylated BH3 peptide from N-terminal His6-tagged human Mcl-1 ligand binding domain (172 to 323 residues) expressed in Escherichia coli BL21(DE3) gold pLysS cells preincubated with protein for 2 hrs followed by incubation with BH3 peptide for 2 hrs by DELFIA assay
[6] = molecular target: T1, Induced myeloid leukemia cell differentiation protein Mcl-1; assay: (§2) Covalent binding affinity to His252 residue of N-terminal His6-tagged 13C(epsilon)-methionine-labeled human Mcl-1 ligand binding domain (172 to 323 residues) expressed in Escherichia coli BL21(DE3) gold pLysS cells assessed as chemical shift perturbations by measuring 13C/1H methyl resonances for binding site Met250 residue at 100 uM by 2D [1H,13C]-aliphatic NMR spectroscopy
[7] = organism: Homo sapiens; assay: as §1, with “residues) Lys234Ala mutant” for “residues)”, “band shift” for “reaction half life”
[8] = molecular target: T1, Induced myeloid leukemia cell differentiation protein Mcl-1; assay: Covalent binding affinity to 15N-labeled human Mcl-1 ligand binding domain (172 to 323 residues) assessed as His252 resonance at 250 uM in presence of BIM BH3 peptide by 2D[15N,1H]HMQC spectroscopy
[9] = molecular target: T1, Induced myeloid leukemia cell differentiation protein Mcl-1; assay: (§3) Covalent binding affinity to N-terminal His6-tagged human Mcl-1 ligand binding domain (172 to 323 residues) expressed in Escherichia coli BL21(DE3) gold pLysS cells assessed as stable covalent adduct formation by measuring band shift at 100 uM incubated for 16 hrs by SDS PAGE analysis
[10] = molecular target: T1, Induced myeloid leukemia cell differentiation protein Mcl-1; assay: as §2, with “1H” for “13C/1H”, “Thr259 and Ile181 residues” for “Met250 residue”, “1D 1H-aliphatic” for “2D [1H,13C]-aliphatic”
[11] = system: A549; assay: Potentiation of etoposide-induced apoptosis in NucLight Red-labeled human A549 cells assessed as decrease in cell viability at 50 uM measured for 24 to 72 hrs in presence of etoposide by IncuCyte S3 live cell analysis; type: functional, cell-based; conditions: time 24-72 hrs
[12] = molecular target: T1, Induced myeloid leukemia cell differentiation protein Mcl-1; assay: Covalent binding affinity to His residues of Mcl-1 in intact NucLight Red-labeled human A549 cells assessed as stable adduct formation by measuring band shift at 50 to 100 uM incubated for 12 hrs with treatment replenishment for every 3 hrs by western blot analysis; type: cell-based; conditions: dose 50-100 µM
[13] = molecular target: T2, Bcl-2-related protein A1 (Homo sapiens) (UniProt Q16548); assay: Covalent binding affinity to N-terminal His6-tagged human Bfl-1 (1 to 149 residues) assessed as band shift at 100 uM incubated for 16 hrs by SDS PAGE analysis
T2 sequence (whole entry): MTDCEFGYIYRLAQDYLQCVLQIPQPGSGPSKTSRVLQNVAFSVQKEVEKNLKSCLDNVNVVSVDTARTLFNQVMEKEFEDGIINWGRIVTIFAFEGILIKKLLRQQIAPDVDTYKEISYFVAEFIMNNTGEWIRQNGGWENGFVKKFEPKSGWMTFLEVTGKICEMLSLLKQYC

[14] = molecular target: T1, Induced myeloid leukemia cell differentiation protein Mcl-1; assay: Covalent binding affinity to N-terminal His6-tagged human Mcl-1 ligand binding domain (172 to 323 residues) expressed in Escherichia coli BL21(DE3) gold pLysS cells assessed as stable covalent adduct formation by measuring reaction half life at 100 uM incubated for 16 hrs by LC-MS analysis
[15] = organism: Homo sapiens; assay: as §3, with “residues) His252Ala mutant” for “residues)”
[16] = molecular target: T1, Induced myeloid leukemia cell differentiation protein Mcl-1; assay: Covalent binding affinity to N-terminal His6-tagged human Mcl-1 ligand binding domain (172 to 323 residues) expressed in Escherichia coli BL21(DE3) gold pLysS cells assessed as increase in mass of protein at 100 uM incubated for 16 hrs by LC-MS analysis
[17] = system: A549; assay: Induction of apoptosis in NucLight Red-labeled human A549 cells assessed as decrease in cell viability at 50 uM measured for 24 to 72 hrs by IncuCyte S3 live cell analysis; type: functional, cell-based; conditions: time 24-72 hrs
[18] = molecular target: T1, Induced myeloid leukemia cell differentiation protein Mcl-1; assay: Covalent binding affinity to 15N-labeled human Mcl-1 ligand binding domain (172 to 323 residues) assessed as broadening of binding site His224 resonance at 250 uM in presence of BIM BH3 peptide by 2D[15N,1H]HMQC spectroscopy
[19] = molecular target: T2, Bcl-2-related protein A1 (Homo sapiens); assay: Displacement of biotinylated BH3 peptide from N-terminal His6-tagged human Bfl-1 (1 to 149 residues) preincubated with protein for 2 hrs followed by incubation with BH3 peptide for 2 hrs by DELFIA assay; conditions: time 4.0 hrs
[20] = system: A549; assay: Induction of cell lysis in NucLight Red-labeled human A549 cells assessed as cell bursting at 100 uM measured after 20 mins by IncuCyte S3 live cell analysis based fluorescence microscopy; type: toxicity; conditions: a549, 20 min
[21] = molecular target: T1, Induced myeloid leukemia cell differentiation protein Mcl-1; assay: Covalent binding affinity to His residues of Mcl-1 in NucLight Red-labeled human A549 cell lysates assessed as stable adduct formation by measuring band shift at 100 uM incubated for 3 hrs by western blot analysis; type: subcellular

T1 sequence (Q07820 whole entry, the tested form may be a part): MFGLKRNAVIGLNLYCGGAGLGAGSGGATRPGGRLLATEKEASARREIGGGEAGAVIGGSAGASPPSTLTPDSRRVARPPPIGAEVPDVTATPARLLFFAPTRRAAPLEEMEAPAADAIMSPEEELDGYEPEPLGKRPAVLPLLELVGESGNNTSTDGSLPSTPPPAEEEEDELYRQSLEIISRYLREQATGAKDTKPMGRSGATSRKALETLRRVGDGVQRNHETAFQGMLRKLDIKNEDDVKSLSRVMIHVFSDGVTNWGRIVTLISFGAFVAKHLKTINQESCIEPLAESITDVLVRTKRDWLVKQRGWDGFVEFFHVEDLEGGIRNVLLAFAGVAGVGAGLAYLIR

In the case of `Cc1nn(C)c(COc2ccc(N3CCN(S(=O)(=O)N(C)C)CC3)cc2)c1-c1cccc2c(CCCOc3cccc4ccccc34)c(C(=O)O)n(CCN3CCOCC3)c12`, the Activity [1] is reported as “Active” and the Activity [2] is reported as “inactive”.
In the case of `CC[C@H](C)[C@H](NC(=O)[C@H](CNC(=O)c1cc(S(=O)(=O)F)ccc1OC)NC(C)=O)C(=O)N[C@@H](C)C(=O)N[C@@H](CCC(=O)O)C(=O)N[C@@H](CCC(N)=O)C(=O)N[C@@H](CC(C)C)C(=O)N[C@@H](CCCNC(=N)N)C(=O)N[C@@]1(C)CCC/C=C\CCC[C@@](C)(C(=O)N[C@@H](Cc2ccccc2)C(N)=O)NC(=O)[C@H](CC(=O)O)NC(=O)CNC(=O)[C@H]([C@@H](C)CC)NC1=O` (Ac-[Dap](Benzoyl(2-OMe,5-SO2F))IAEQLR[S5]IGD[S5]F-NH2; staple (Z) 8-12), the T1/2 [3] is reported as 6 h, the Activity [4] is reported as 1740 Da and the IC50 [5] is reported as 18 nM. The Activity [6] was “Active”, the Activity [7] was “Active” and the Activity [8] was “Active”. For the same molecule, the Activity [9] was “Active”, the Activity [10] was “Active” and the Activity [11] was “Active”. For the same molecule, the Activity [12] was “Active”, the Activity [13] was “inactive” and the T1/2 [14] was 6 h. The Activity [15] was “Active”, the Activity [16] was 1740 Da and the Activity [17] was “inactive”. The Activity [18] was “Active”, the Activity [19] was “inactive” and the Activity [20] was “Non-Toxic”. For the same molecule, the Activity [21] was “Active”.
